In patent publication US20180228158A1, “COMPOSITIONS AND METHODS FOR CONTROL OF DISEASE” (Monsanto Technology LLC, priority 2017, published 2018):

Experiments:
[1] = tested on: soybean sudden death syndrome (fungi of the genus Fusarium); assay: Field trial against soybean sudden death syndrome (seed treatment); assay type: in vivo, Fusarium virguliforme; set-up: key to SDS incidence: % of affected plants; SDS severity: scale not given here; details: for SDS severity: average severity of symptoms in the plots at harvest time; for SDS incidence: percentage of affected plants at harvest time in the fall
Procedure: (§1) A field trial was conducted to determine the efficacy of compounds as described herein against soybean sudden death syndrome. Soybean seeds were planted at the start of the spring growing season in a location where fungi of the genus Fusarium were endemic. Nothing special was done to encourage growth of the fungus or development of the SDS disease.
(§2) Compounds listed in Table 1 below were used to treat soybean seeds prior to planting.
(§3) Seeds treated with oxamyl, at a rate of 1 mg per seed, and non-treated seeds (NT) were included as controls.
(§4) Other typical agronomic data, including counts of soybean cyst nematode (SCN) eggs, were also collected throughout the trial. The percentage of affected plants and the observed SDS disease severity are graphically depicted in FIGS. 1 and 2, respectively.

[2] = tested on: soybean cyst nematode (SCN); assay: Field trial: counts of soybean cyst nematode (SCN) eggs; assay type: in vivo; details: for Fall Eggs/100 cc: SCN egg count in fall; for Spring Eggs/100 cc: SCN egg count in spring; for Mean RF: SCN eggs
Procedure: as §1, §2, §3, §4

[3] = soybean seed treatment 0.5 mg/seed
[4] = soybean seed treatment 1 mg/seed

c1ccc(-c2noc(-c3cccs3)n2)cc1 [DC1822] gave an SDS severity [1, 3] of 2, an SDS incidence [1, 3] of 45 and an SDS severity [1, 4] of 1.5. The SDS incidence [1, 4] was 28.75, the “Fall Eggs/100 cc” value [2, 3] was 2600 eggs/100 cc and the “Spring Eggs/100 cc” value [2, 3] was 1175 eggs/100 cc. The “Mean RF” value [2, 3] was 3.875, the “Fall Eggs/100 cc” value [2, 4] was 2100 eggs/100 cc and the “Spring Eggs/100 cc” value [2, 4] was 700 eggs/100 cc. The “Mean RF” value [2, 4] was 6.425.
Clc1ccc(-c2noc(-c3ccco3)n2)cc1 [DC5523] was tested, and the SDS severity [1, 3] was 2, the SDS incidence [1, 3] was 47.5 and the SDS severity [1, 4] was 2. The SDS incidence [1, 4] was 26.25, the “Fall Eggs/100 cc” value [2, 3] was 1925 eggs/100 cc and the “Spring Eggs/100 cc” value [2, 3] was 675 eggs/100 cc. For the same compound, the “Mean RF” value [2, 3] was 5.35, the “Fall Eggs/100 cc” value [2, 4] was 1725 eggs/100 cc and the “Spring Eggs/100 cc” value [2, 4] was 800 eggs/100 cc. For the same compound, the “Mean RF” value [2, 4] was 4.325.
Cc1cc(Cl)ccc1-c1noc(-c2ccco2)n1 [DC5823] showed an SDS severity [1, 3] of 2.25, an SDS incidence [1, 3] of 55 and an SDS severity [1, 4] of 2.5. For the same compound, the SDS incidence [1, 4] was 46.25, the “Fall Eggs/100 cc” value [2, 3] was 3325 eggs/100 cc and the “Spring Eggs/100 cc” value [2, 3] was 1075 eggs/100 cc. The “Mean RF” value [2, 3] was 3.35, the “Fall Eggs/100 cc” value [2, 4] was 1100 eggs/100 cc and the “Spring Eggs/100 cc” value [2, 4] was 1450 eggs/100 cc. The “Mean RF” value [2, 4] was 1.625.
For CNC(=O)O/N=C(\SC)C(=O)N(C)C [Oxamyl, oxamyl, reference compound], the SDS severity [1, 4] was 1.5, the SDS incidence [1, 4] was 32.5 and the “Fall Eggs/100 cc” value [2, 4] was 3075 eggs/100 cc. For the same compound, the “Spring Eggs/100 cc” value [2, 4] was 1050 eggs/100 cc and the “Mean RF” value [2, 4] was 6.65.
